Patent US20070128217A1 (priority 2003, published 2007)

Assays:
[1] = tested on: control sera (pooled serum of ten healthy LUMC hospital workers; commercial negative donor pooled serum from the Dutch bloodbank); type: binding, human; set-up: Binding of Control serum LUMC to linear peptides / Binding of Control serum Blood-bank to linear peptides / Binding of Control serum LUMC to looped peptides / Binding of Control Serum Blood-Bank to Looped peptides / Binding of Control serum LUMC to linear peptides of the protein M of SARS-CoV Urbani / Binding of Control serum Blood-bank to linear peptides of the protein M of SARS-CoV Urbani / Binding of Control serum LUMC to looped peptides of the protein M of SARS-CoV Urbani / Binding of Control Serum Blood-Bank to Looped peptides of the protein M of SARS-CoV Urbani: unit not given here
[2] = tested on: rabbit serum obtained by immunizing a rabbit with the SARS-CoV strain Frankfurt 1; type: binding; set-up: Binding of a rabbit serum to linear peptides / Binding of a rabbit serum to looped peptides / Rabbit serum linear peptides / Rabbit serum looped peptides / Binding of a rabbit serum to linear peptides of protein N of SARS-CoV Urbani (Rabbit serum linear peptides) / Binding of a rabbit serum to looped/cyclic peptides of protein N of SARS-CoV Urbani (Rabbit serum looped peptides): unit not given here
[3] = tested on: antibodies in sera from SARS patients (sera 1a, 1b, 2, 6, 37, 62, London, SARS-yellow, SARS-green); type: binding, human; set-up: Binding of serum 6 to linear peptides of protein X1 of SARS-CoV Urbani / Binding of serum 37 to linear peptides of protein X1 of SARS-CoV Urbani / Binding of serum 6 to looped/cyclic peptide (PEPSCAN-ELISA) / Binding of serum 37 to looped/cyclic peptide (PEPSCAN-ELISA) / Binding of serum 37 to looped/cyclic peptides of protein X1 of SARS-CoV Urbani / Binding of serum 6 to linear peptides of protein X2 / Binding of serum 37 to linear peptides of protein X2 / Binding of serum 37 to looped/cyclic peptides of protein X2 of SARS-CoV Urbani / Binding of serum 6 to linear peptides of protein M of SARS-CoV Urbani / Binding of serum 37 to linear peptides of protein M of SARS-CoV Urbani / Binding of serum 6 to looped/cyclic peptides of protein M of SARS-CoV Urbani / Binding of serum 37 to looped/cyclic peptides of protein M of SARS-CoV Urbani / Binding of serum 6 to linear peptides of protein X3 of SARS-CoV Urbani / Binding of serum 37 to linear peptides of protein X3 of SARS-CoV Urbani / Binding of serum 37 to looped/cyclic peptides of protein X3 of SARS-CoV Urbani / Binding of serum 6 to linear peptides of protein X4 of SARS-CoV Urbani / Binding of serum 37 to linear peptides of protein X4 of SARS-CoV Urbani / Binding of serum 37 to looped/cyclic peptides of protein X4 of SARS-CoV Urbani / Binding of serum 6 to linear peptides of protein X5 of SARS-CoV Urbani / Binding of serum 37 to linear peptides of protein X5 of SARS-CoV Urbani / Binding of serum 37 to looped/cyclic peptides of protein X5 of SARS-CoV Urbani / Binding of serum 6 to linear peptides of protein N of SARS-CoV Urbani / Binding of serum 37 to linear peptides of protein N of SARS-CoV Urbani / Binding of serum 6 to linear peptide (PEPSCAN-ELISA) / Binding of serum 1a to looped/cyclic peptides of protein N of SARS-CoV Urbani / Binding of serum 1b to looped/cyclic peptides of protein N of SARS-CoV Urbani / Binding of serum 2 to looped/cyclic peptides of protein N of SARS-CoV Urbani / Binding of serum 6 to looped/cyclic peptides of protein N of SARS-CoV Urbani / Binding of serum 37 to looped/cyclic peptides of protein N of SARS-CoV Urbani / Binding of serum 62 to looped/cyclic peptides of protein N of SARS-CoV Urbani / Binding of serum London to looped/cyclic peptides of protein N of SARS-CoV Urbani / Binding of serum SARS-green to looped/cyclic peptides of protein N of SARS-CoV Urbani: unit not given here

Row | Sequence | Binding of Control Serum Blood-Bank to Looped peptides [1] | Binding of Control serum Blood-bank to linear peptides [1] | Binding of Control serum LUMC to linear peptides [1] | Binding of Control serum LUMC to looped peptides [1] | Binding of a rabbit serum to linear peptides [2] | Binding of a rabbit serum to looped peptides [2] | Binding of serum 1a to linear peptides of protein X1 of SARS-CoV Urbani [3] | Binding of serum 1a to looped/cyclic peptide (PEPSCAN-ELISA) [3] | Binding of serum 1b to linear peptides of protein X1 of SARS-CoV Urbani [3] | Binding of serum 1b to looped/cyclic peptide (PEPSCAN-ELISA) [3] | Binding of serum 2 to linear peptides of protein X1 of SARS-CoV Urbani [3] | Binding of serum 2 to looped/cyclic peptide (PEPSCAN-ELISA) [3] | Binding of serum 6 to linear peptides of protein X1 of SARS-CoV Urbani [3] | Binding of serum 6 to looped/cyclic peptide (PEPSCAN-ELISA) [3] | Binding of serum 37 to linear peptides of protein X1 of SARS-CoV Urbani [3] | Binding of serum 37 to looped/cyclic peptide (PEPSCAN-ELISA) [3] | Binding of serum 62 to linear peptides of protein X1 of SARS-CoV Urbani [3] | Binding of serum 62 to looped/cyclic peptide (PEPSCAN-ELISA) [3] | Binding of serum London to linear peptides of protein X1 of SARS-CoV Urbani [3] | Binding of serum London to looped/cyclic peptide (PEPSCAN-ELISA) [3] | also measured
1 | LYMAISPKFTTSLSL | 0.7 | 0.6 | 0.3 | 0.8 | 0.3 | 0.5 |  |  |  |  |  |  |  |  |  |  |  |  |  |  | Binding of serum 1a to linear peptides of protein X2 [3]: 0.7; Binding of serum 1a to looped/cyclic peptides of protein X2 of SARS-CoV Urbani [3]: 0.6; Binding of serum 1b to linear peptides of protein X2 [3]: 0.5; Binding of serum 1b to looped/cyclic peptides of protein X2 of SARS-CoV Urbani [3]: 0.5; Binding of serum 2 to linear peptides of protein X2 [3]: 0.5; Binding of serum 2 to looped/cyclic peptides of protein X2 of SARS-CoV Urbani [3]: 0.5; Binding of serum 6 to linear peptides of protein X2 [3]: 0.3; Binding of serum 6 to looped/cyclic peptides of protein X2 of SARS-CoV Urbani [3]: 0.5; Binding of serum 37 to linear peptides of protein X2 [3]: 0.6; Binding of serum 37 to looped/cyclic peptides of protein X2 of SARS-CoV Urbani [3]: 0.5; Binding of serum 62 to linear peptides of protein X2 [3]: 0.6; Binding of serum 62 to looped/cyclic peptides of protein X2 of SARS-CoV Urbani [3]: 0.7; Binding of serum London to linear peptides of protein X2 [3]: 0.3; Binding of serum London to looped/cyclic peptides of protein X2 of SARS-CoV Urbani [3]: 0.6; Binding of serum SARS-green to linear peptides of protein X2 [3]: 0.5; Binding of serum SARS-green to looped/cyclic peptides of protein X2 of SARS-CoV Urbani [3]: 0.4; Binding of serum SARS-yellow to linear peptides of protein X2 [3]: 0.6; Binding of serum SARS-yellow to looped/cyclic peptides of protein X2 of SARS-CoV Urbani [3]: 0.5
2 | PLQASLPFGWLVIGV | 0.7 | 0.8 | 0.9 | 0.5 | 0.1 | 0.4 | 0.8 | 0.5 | 0.5 | 0.3 | 0.5 | 0.4 | 0.5 | 0.4 | 0.7 | 0.5 | 0.7 | 0.7 | 0.3 | 0.2 | Binding of serum SARS-green to linear peptides of protein X1 of SARS-CoV Urbani [3]: 0.4; Binding of serum SARS-green to looped/cyclic peptide (PEPSCAN-ELISA) [3]: 0.3; Binding of serum SARS-yellow to linear peptides of protein X1 of SARS-CoV Urbani [3]: 0.6; Binding of serum SARS-yellow to looped/cyclic peptide (PEPSCAN-ELISA) [3]: 0.4
3 | HLLLVAAGMEAQFLY | 0.6 | 0.6 | 0.7 | 0.4 | 0.5 | 0.4 | 0.9 | 0.5 | 0.7 | 0.6 | 0.6 | 0.6 | 0.5 | 0.1 | 0.7 | 0.6 | 0.7 | 0.6 | 0.3 | 0.2 | Binding of serum SARS-green to linear peptides of protein X1 of SARS-CoV Urbani [3]: 0.2; Binding of serum SARS-green to looped/cyclic peptide (PEPSCAN-ELISA) [3]: 0.4; Binding of serum SARS-yellow to linear peptides of protein X1 of SARS-CoV Urbani [3]: 0.6; Binding of serum SARS-yellow to looped/cyclic peptide (PEPSCAN-ELISA) [3]: 0.3
